# Results as given in ChEMBL document CHEMBL1201862, “PubChem BioAssay data set” (2004).
#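 Interpolation was linear, between the two tested concentrations surrounding the appropriate level; five concentrations were tested over 48 hours in 96-well plates. Here, GI50 denotes the concentration required for 50% inhibition of growth.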 Activity calls are given as the source filed them. No stated cut-off is given here; in the data, active = GI50 up to about 1.1 µM and inactive = higher.
# Experiments:
# Assay in all cases: inhibition of tumour cell growth, NCI panel, 48 h
# [1] = test system: A498
# [2] = test system: A549
# [3] = test system: ACHN
# [4] = test system: HCC 2998
# [5] = test system: HOP-92
# [6] = test system: LOX IMVI
# [7] = test system: MCF7
# [8] = test system: MDA-MB-435
# [9] = test system: MOLT-4
# [10] = test system: NCI-H460
# [11] = test system: OVCAR-8
# [12] = test system: SK-MEL-28
# [13] = test system: SK-MEL-5
# [14] = test system: SR
# [15] = test system: T47D
# [16] = test system: UO-31
# [17] = test system: CAKI-1
# [18] = test system: NCI-H522
# [19] = test system: SK-MEL-2
# [20] = test system: PC-3
SMILES,GI50 [1],GI50 [2],GI50 [3],GI50 [4],GI50 [5],GI50 [6],GI50 [7],GI50 [8],GI50 [9],GI50 [10],GI50 [11],GI50 [12],GI50 [13],GI50 [14],GI50 [15],GI50 [16],GI50 [17],GI50 [18],GI50 [19],GI50 [20]
C=CCC(C)C12CCNC(Cc3ccc(O)cc31)C2C (stereo unspecified),43.6 µM (inactive),> 100 µM (inactive),> 100 µM (inactive),51.1 µM (inactive),56.1 µM (inactive),> 100 µM (inactive),> 100 µM (inactive),> 100 µM (inactive),84.5 µM (inactive),89.9 µM (inactive),> 100 µM (inactive),> 100 µM (inactive),> 100 µM (inactive),82.4 µM (inactive),> 100 µM (inactive),38.6 µM (inactive),,,,
CN/C(=N/C#N)NCc1ccccc1,> 100 µM (inactive),> 100 µM (inactive),> 100 µM (inactive),27.4 µM (inactive),> 100 µM (inactive),> 100 µM (inactive),,,> 100 µM (inactive),> 100 µM (inactive),> 100 µM (inactive),> 100 µM (inactive),> 100 µM (inactive),> 100 µM (inactive),,> 100 µM (inactive),> 100 µM (inactive),> 100 µM (inactive),> 100 µM (inactive),
Cc1cc(N(CCC#N)CCC#N)ccc1/C(Sc1ccccc1)=C(\NC(=O)/C=C/c1ccccc1)C(=O)Sc1ccccc1,4.06 µM (inactive),2.02 µM (inactive),4.75 µM (inactive),11.4 µM (inactive),2.92 µM (inactive),0.83 µM (active),,,0.557 µM (active),7.01 µM (inactive),2.94 µM (inactive),4.99 µM (inactive),2.77 µM (inactive),0.665 µM (active),,0.731 µM (active),2.05 µM (inactive),0.587 µM (active),3.42 µM (inactive),
Cc1nc(N)nc(N)c1CCCCc1ccccc1,18.2 µM (inactive),3.67 µM (inactive),9.2 µM (inactive),10.7 µM (inactive),22.5 µM (inactive),5.83 µM (inactive),,,5.3 µM (inactive),3.32 µM (inactive),8.2 µM (inactive),> 10 µM (inactive),4.39 µM (inactive),13.3 µM (inactive),,19.4 µM (inactive),23.4 µM (inactive),10.2 µM (inactive),16.7 µM (inactive),
COc1cc2c(cc1OC)CC(=O)c1cc(OC)c(OC)cc1/C=C\2,> 12.5 µM (inactive),> 12.5 µM (inactive),> 12.5 µM (inactive),,> 12.5 µM (inactive),> 12.5 µM (inactive),> 12.5 µM (inactive),3.92 µM (inactive),9.93 µM (inactive),> 12.5 µM (inactive),> 12.5 µM (inactive),> 12.5 µM (inactive),7.74 µM (inactive),,,> 12.5 µM (inactive),> 12.5 µM (inactive),9.44 µM (inactive),> 12.5 µM (inactive),> 12.5 µM (inactive)
[N-]=[N+]=Nc1c(N2CCOCC2)c(Cl)nc2ccccc12,47.9 µM (inactive),51.2 µM (inactive),39.2 µM (inactive),92.7 µM (inactive),46.7 µM (inactive),46.6 µM (inactive),,42.5 µM (inactive),65.2 µM (inactive),28.8 µM (inactive),35.2 µM (inactive),59.8 µM (inactive),20.7 µM (inactive),92.3 µM (inactive),65.6 µM (inactive),33.6 µM (inactive),60.5 µM (inactive),29.7 µM (inactive),39 µM (inactive),34.2 µM (inactive)
COC(=O)c1c(O)ccc2c1c1c(n2CCc2ccccc2)C(=O)c2ccccc2C1,19.2 µM (inactive),23.5 µM (inactive),,,10.9 µM (inactive),30.1 µM (inactive),14.2 µM (inactive),18.2 µM (inactive),38.3 µM (inactive),16.7 µM (inactive),36.3 µM (inactive),19.5 µM (inactive),17.6 µM (inactive),29.7 µM (inactive),,20.7 µM (inactive),17.2 µM (inactive),,15.8 µM (inactive),16.8 µM (inactive)
CCOC(=O)Cn1c(=O)[nH]c(=O)c2c1ncn2Cc1ccccc1,> 100 µM (inactive),> 100 µM (inactive),> 100 µM (inactive),> 100 µM (inactive),> 100 µM (inactive),> 100 µM (inactive),,,> 100 µM (inactive),> 100 µM (inactive),> 100 µM (inactive),> 100 µM (inactive),> 100 µM (inactive),> 100 µM (inactive),,> 100 µM (inactive),> 100 µM (inactive),> 100 µM (inactive),> 100 µM (inactive),
O=[N+]([O-])c1ccc(C2=Nn3cnnc3SC2)o1,16.3 µM (inactive),20.6 µM (inactive),15.8 µM (inactive),15.8 µM (inactive),26.1 µM (inactive),2.06 µM (inactive),,,20 µM (inactive),10.6 µM (inactive),20.1 µM (inactive),16.6 µM (inactive),16.4 µM (inactive),16.7 µM (inactive),,21.4 µM (inactive),> 10 µM (inactive),> 10 µM (inactive),20.9 µM (inactive),
COc1cc2c(cc1NC(=O)c1ccccc1)c1c(n2S(=O)(=O)c2ccccc2)CCN(S(=O)(=O)c2ccccc2)C1,> 100 µM (inactive),> 100 µM (inactive),> 100 µM (inactive),> 100 µM (inactive),> 100 µM (inactive),> 100 µM (inactive),,> 100 µM (inactive),> 100 µM (inactive),> 100 µM (inactive),> 100 µM (inactive),> 100 µM (inactive),> 100 µM (inactive),> 100 µM (inactive),22.1 µM (inactive),,,,> 100 µM (inactive),> 100 µM (inactive)
O/N=C1/C(=C/c2ccc(OCc3ccccc3)cc2)CCCC1C(NO)c1ccc(OCc2ccccc2)cc1 (stereo unspecified),> 100 µM (inactive),> 100 µM (inactive),17 µM (inactive),46 µM (inactive),11.1 µM (inactive),4.05 µM (inactive),,,5.6 µM (inactive),14.2 µM (inactive),26.7 µM (inactive),48.4 µM (inactive),6.04 µM (inactive),11.8 µM (inactive),,14.6 µM (inactive),5.87 µM (inactive),6.27 µM (inactive),8.55 µM (inactive),
O=C(CN1C(=O)c2ccccc2C1=O)OCC1CCCN2CCCCC12 (stereo unspecified),> 100 µM (inactive),> 100 µM (inactive),> 100 µM (inactive),> 100 µM (inactive),> 100 µM (inactive),> 100 µM (inactive),> 100 µM (inactive),> 100 µM (inactive),> 100 µM (inactive),> 100 µM (inactive),> 100 µM (inactive),> 100 µM (inactive),> 100 µM (inactive),,> 100 µM (inactive),> 100 µM (inactive),> 100 µM (inactive),,> 100 µM (inactive),> 100 µM (inactive)
COc1ccccc1N1C(=O)/C(=C\c2cc(OC)c(OC)c(OC)c2)S(=O)(=O)C1c1ccccc1 (stereo unspecified),48.2 µM (inactive),44 µM (inactive),41.2 µM (inactive),79.4 µM (inactive),33.3 µM (inactive),29.4 µM (inactive),27.4 µM (inactive),16 µM (inactive),31.8 µM (inactive),61.1 µM (inactive),37.2 µM (inactive),27.4 µM (inactive),26.4 µM (inactive),23.7 µM (inactive),29.6 µM (inactive),36.5 µM (inactive),53.3 µM (inactive),17 µM (inactive),26.9 µM (inactive),
CC(=O)Nc1[nH]n(C)c(=O)c1-c1nnc(C)s1,> 100 µM (inactive),> 100 µM (inactive),> 100 µM (inactive),> 100 µM (inactive),> 100 µM (inactive),> 100 µM (inactive),,,> 100 µM (inactive),> 100 µM (inactive),> 100 µM (inactive),> 100 µM (inactive),> 100 µM (inactive),> 100 µM (inactive),,> 100 µM (inactive),> 100 µM (inactive),> 100 µM (inactive),> 100 µM (inactive),
CC1OC(n2cc(F)c(=O)[nH]c2=O)C=CC1O (stereo unspecified),> 100 µM (inactive),> 100 µM (inactive),> 100 µM (inactive),> 100 µM (inactive),> 100 µM (inactive),> 43.2 µM (inactive),,,> 100 µM (inactive),> 100 µM (inactive),> 100 µM (inactive),> 100 µM (inactive),> 100 µM (inactive),> 100 µM (inactive),,> 100 µM (inactive),> 100 µM (inactive),> 100 µM (inactive),> 100 µM (inactive),
CNC(=O)OCc1nc([S+](C)[O-])n(C)c1COC(=O)NC (stereo unspecified),38.7 µM (inactive),> 46.5 µM (inactive),> 24.2 µM (inactive),> 100 µM (inactive),> 48.4 µM (inactive),> 100 µM (inactive),> 100 µM (inactive),,> 100 µM (inactive),> 100 µM (inactive),> 100 µM (inactive),> 100 µM (inactive),> 46.5 µM (inactive),> 100 µM (inactive),,> 100 µM (inactive),> 58.7 µM (inactive),> 100 µM (inactive),> 100 µM (inactive),
